{"source": "patent US5804549A", "about": "“Compositions with activity against helicobacter” (AMBI Inc., priority 1996, dated 1998)", "test_system": "H. pylori strain ATCC 43504", "assay": "bactericidal activity: survival of bacteria by viable counts (CFU/ml)", "assay_type": "cell-based, Helicobacter pylori", "procedure": "All tests of bactericidal activity in this example were conducted for 30 minutes at 37° C. The parameter measured was survival of bacteria exposed to GML and/or nisin, as determined by viable counts (colony forming units per ml [CFU/ml]) determined by standard dilution and plating techniques. Media, growth and test conditions were as follows: All cultures of Helicobacter were incubated under microaerobic conditions in GasPak. H. pylori was cultured for 2 to 4 days on Trypticase Soy agar+5% defibrinated sheep blood and then inoculated into NYCIII broth and grown overnight with gentle shaking. [NYCIII broth contains, per liter: 1 g soluble starch (Difco), 15 g proteose peptone #3 (Difco), 5 g NaCl, 4 gK2 HPO4, 1 g KH2 PO4, 5 g glucose, 25 ml fresh yeast extract (Gibco), 120 ml gamma-globulin-free horse serum (Sigma)]. Suspensions for testing the activity of GML and nisin were in 10% sucrose. Viable counts were determined after 3-5 days' growth on Trypticase Soy agar-5% sheep blood.\nA suspension of bacteria was divided and exposed to different concentrations of the agents, singly or combined. Survival of bacteria is expressed relative to the unincubated (zero time) control suspension. Nisin alone, at concentrations between 30 and 300 μg/ml, had little or no effect on the viability of H. pylori (survival ≥10%). At concentrations of 1 and 3 μg/ml GML, in the absence of nisin, there was also little or no reduction in the viability of the inoculum (survival≥10%). […] When the bacteria were exposed to 10 μg/ml of GML alone, again more than 10% of the bacteria survived."}
{"compound": "CCCCCCCCCCCC(=O)OCC(O)CO", "note": "(stereo not drawn) [GML, Glycerol monolaurate]", "values": [{"measurement": "Survival of bacteria relative to the unincubated (zero time) control suspension", "setting": "10 μg/ml of GML alone, 30 minutes at 37° C.", "result": "more than 10%"}, {"measurement": "effect on the viability of H. pylori", "setting": "GML 10 μg/ml administered alone", "result": "little effect on the viability"}, {"measurement": "Survival of bacteria relative to the unincubated (zero time) control suspension", "setting": "GML 1 and 3 μg/ml, in the absence of nisin, 30 minutes at 37° C.", "result": "≥ 10", "unit": "%"}, {"measurement": "effect on viability of the bacterial suspensions", "setting": "GML alone, 30 or 100 μg/ml, 30 minutes at 37° C.", "result": "sterilized the bacterial suspensions"}]}
{"compound": "nisin", "values": [{"measurement": "effect on the viability of H. pylori", "setting": "nisin 30-100 μg/ml administered alone", "result": "little effect on the viability"}, {"measurement": "Survival of bacteria relative to the unincubated (zero time) control suspension", "setting": "nisin alone, 30 to 300 μg/ml, 30 minutes at 37° C., 10% sucrose, no chelator", "result": "≥ 10", "unit": "%"}]}
